Laboratory results taken from US20250382272A1, “CRYSTALLINE FORM OF INDAZIFLAM, METHODS FOR ITS PREPARATION AND USE THEREOF” (ADAMA AGAN LTD., priority 2022, published 2025).

Test: Bulk and tapped density, compressibility index (USP <1174> Powder Flow) of indaziflam crystal samples
Type: physicochemical
Details: for Tap density: cylinder manually tapped (dropped) 50 times, ~1 second between taps; for flowability: judged from compressibility index as explained in US Pharmacopoeia method <1174> Powder Flow; for Bulk Density: sample poured into tared cylinder to 250 ml mark and weighed
Description: For purposes of sufficiency of disclosure, the “compressibility index” means in the present invention the compressibility index measured according to US Pharmacopoeia method <1174> Powder Flow, revision from 20 Jan. 2023.
Bulk and tapped density measurements are obtained by placing a sample onto a glazed paper. Then, the sample is poured into the tared cylinder until 250 ml mark is reached. The amount of sample is weighed. Rubber bung is fitted into the cylinder. Cylinder is placed in the dropping box and manually tapped (dropped) 50 times with ˜1 second time difference between taps. Compressibility index is calculated from the bulk density and the tapped density as explained in US Pharmacopoeia method <1174> Powder Flow, revision from 20 Jan. 2023.

Compound | Tap density [gr/ml] | flowability | Bulk Density [gr/ml]
Cc1ccc2c(c1)[C@H](Nc1nc(N)nc([C@@H](C)F)n1)[C@@H](C)C2 [Comparative Example 3, N-[(1R,2S)-2,6-dimethyl-2,3-dihydro-1H-inden-yl]-6-[(1R)-1-fluoroethyl]-1,3-5-triazine-2,4-diamine, reference compound] | 0.59 | not good | 0.48
Cc1ccc2c(c1)[C@H](Nc1nc(N)nc([C@@H](C)F)n1)[C@@H](C)C2 [Example 1, N-[(1R,2S)-2,6-dimethyl-2,3-dihydro-1H-inden-yl]-6-[(1R)-1-fluoroethyl]-1,3-5-triazine-2,4-diamine] | 0.65 |  | 0.56
Cc1ccc2c(c1)[C@H](Nc1nc(N)nc([C@@H](C)F)n1)[C@@H](C)C2 [Example 2, N-[(1R,2S)-2,6-dimethyl-2,3-dihydro-1H-inden-yl]-6-[(1R)-1-fluoroethyl]-1,3-5-triazine-2,4-diamine] | 0.52 | good flowability | 0.47
